In brackets after ≈: the same amount, converted by molar mass. Several values for one entry are separate records, joined by “and”; a condition that tells them apart may be missing. Identical values can stand only once.
Tests used:
Type in all cases: cell-based
Bacillus subtilis W168 [1] = assay: Minimum inhibitory concentration in LB broth, B. subtilis; settings: for Relative to AgNO3: efficacy per mole from MIC values
[2] = test system: Gram positive and Gram negative bacteria; assay: Antimicrobial activity, summary of TABLES 16-18
Procedure: (§1) The new class of fluorinated triazapentadiene compounds with and without metal complexation as described herein were analyzed for antibacterial activity against several bacterial strains (both Gram positive and Gram negative). Methods for antimicrobial analysis included a modified Kirby-Bauer method and a determination of their minimum inhibitory concentrations. In brief, the modified Kirby-Bauer method relied on placement of a filter disk impregnated with a desired compound on a solid growth medium. Bacteria were grown to a confluent lawn and the extent of growth inhibition was measured (e.g., as an extent/percentage of a clear zone on the disk and/or solid medium).
For MIC assessment, compounds were initially dissolved in DMSO and serial dilutions of soluble compounds were made in LB broth.

[3] = test system: Pseudomonas aeruginosa PAO1; assay: Minimum inhibitory concentration in LB broth, P. aeruginosa; settings: for Relative to AgNO3: efficacy per mole from MIC values
Escherichia coli HB101 [4] = assay: Minimum inhibitory concentration in LB broth, E. coli; settings: for Relative to AgNO3: efficacy per mole from MIC values;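 as to all read-outs here: broth dilution MIC, test compounds first taken up in DMSO, then serially diluted in LB medium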
[5] = test system: Pseudomonas aeruginosa PAO1; assay: Disk sensitivity test (modified Kirby-Bauer), P. aeruginosa;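 also: Compound-loaded filter disks on LB agar lawns, DMSO as solvent, zone of inhibition around each disk read after overnight incubation at 37 °C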
[6] = test system: Staphylococcus aureus (ATCC 25923); assay: Disk sensitivity test (modified Kirby-Bauer), S. aureus;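 also: Compound-loaded filter disks on LB agar plates seeded with a confluent bacterial lawn, compound dissolved in DMSO, plates kept overnight at 37 °C, then inhibition zone around disk measured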
Procedure: (§2) Filter disks were provided as sterile filter paper (about 6 mm in diameter) and spotted with 20 μL of a selected compound. Each compound was initially dissolved in dimethylsulfoxide (DMSO); any subsequent dilutions were also made in DMSO. Each filter was placed on an LB agar plate spread with 100 μL of a bacterial culture that had been grown overnight in suitable LB broth. Plates were incubated overnight at 37° C., after which, the extent of growth inhibition around each filter disk was measured. Bacterial strains included Staphylococcus aureus (ATCC 25923), Pseudomonas aeruginosa PAO1, Bacillus subtilis W168 and Escherichia coli HB101. […] The latter two strains are non-pathogenic Gram-positive and Gram-negative bacterial strains, respectively.

Escherichia coli HB101 [7] = assay: Disk sensitivity test (modified Kirby-Bauer), E. coli;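 also: filter disk loaded with compound in DMSO laid on an LB agar bacterial lawn, kept overnight at 37 °C, then the inhibition zone around the disk is measured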
Procedure: as §2

Bacillus subtilis W168 [8] = assay: Disk sensitivity test (modified Kirby-Bauer), B. subtilis;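 also: Compound-loaded filter disks on LB agar plates seeded with a bacterial lawn, plates held overnight at 37 °C, then the clear zone around each disk measured, compounds in DMSO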
Procedure: as §2

[9] = test system: Staphylococcus aureus (ATCC 25923); assay: Minimum inhibitory concentration in LB broth, S. aureus; settings: for Relative to AgNO3: efficacy per mole from MIC values
[10] = test system: Gram-positive bacteria (e.g., S. aureus and B. subtilis); assay: Growth inhibition of Gram-positive bacteria, summary of TABLES 6-19
Procedure: as §1
Filter disks were provided as sterile filter paper (about 6 mm in diameter) and spotted with 20 μL of a selected compound. Each compound was initially dissolved in dimethylsulfoxide (DMSO); any subsequent dilutions were also made in DMSO. Each filter was placed on an LB agar plate spread with 100 μL of a bacterial culture that had been grown overnight in suitable LB broth. Plates were incubated overnight at 37° C., after which, the extent of growth inhibition around each filter disk was measured. Bacterial strains included Staphylococcus aureus (ATCC 25923), Pseudomonas aeruginosa PAO1, Bacillus subtilis W168 and Escherichia coli HB101. […]

Compound: Fc1c(F)c(F)c(N=C(N=C(Nc2c(F)c(F)c(F)c(F)c2F)C(F)(F)C(F)(F)C(F)(F)F)C(F)(F)C(F)(F)C(F)(F)F)c(F)c1F [[N{(C3F7)C(C6F5)N}2]H]
- MIC (Bacillus subtilis W168 [1]): 1.57 μg/ml and 2.12 × 10^−3 mM
- Relative to AgNO3 (Bacillus subtilis W168 [1]): 69.34
- antimicrobial activity (in words) [2]: Effective
- MIC [3]: 2643.48 μg/ml and 3.58 mM
- Relative to AgNO3 [3]: 5.14 × 10^−3
- MIC (Escherichia coli HB101 [4]): 2643.48 μg/ml and 3.58 mM
- Relative to AgNO3 (Escherichia coli HB101 [4]): 1.65 × 10^−2
- Diameter of the zone of growth inhibition ([5]; 5.7 × 10^0 mM): 8.0 mm
- Diameter of the zone of growth inhibition ([5]; 5.7 × 10^1 mM): 9.0 mm
- Diameter of the zone of growth inhibition ([5]; 5.7 × 10^−1 mM): 8.0 mm
- Diameter of the zone of growth inhibition ([5]; 5.7 × 10^−2 mM): 8.0 mm
- Diameter of the zone of growth inhibition ([5]; 5.7 × 10^−3 mM): 7.0 mm
- Diameter of the zone of growth inhibition ([6]; 5.7 × 10^0 mM): 37.5 mm
- Diameter of the zone of growth inhibition ([6]; 5.7 × 10^1 mM): 75.0 mm
- Diameter of the zone of growth inhibition ([6]; 5.7 × 10^−1 mM): 40.0 mm
- Diameter of the zone of growth inhibition ([6]; 5.7 × 10^−2 mM): 19.0 mm
- Diameter of the zone of growth inhibition ([6]; 5.7 × 10^−3 mM): 9.0 mm
- Diameter of the zone of growth inhibition ([6]; 5.7 × 10^−4 mM): 6.0 (NZ) mm
- Diameter of the zone of growth inhibition ([6]; 5.7 × 10^−5 mM): 6.0 (NZ) mm
- Diameter of the zone of growth inhibition ([6]; 5.7 × 10^−6 mM): 6.0 (NZ) mm
- Diameter of the zone of growth inhibition ([6]; 5.7 × 10^−7 mM): 6.0 (NZ) mm
- Diameter of the zone of growth inhibition (Escherichia coli HB101 [7]; 5.7 × 10^0 mM): 9.0 mm
- Diameter of the zone of growth inhibition (Escherichia coli HB101 [7]; 5.7 × 10^1 mM): 9.5 mm
- Diameter of the zone of growth inhibition (Escherichia coli HB101 [7]; 5.7 × 10^−1 mM): 9.0 mm
- Diameter of the zone of growth inhibition (Escherichia coli HB101 [7]; 5.7 × 10^−2 mM): 8.5 mm
- Diameter of the zone of growth inhibition (Escherichia coli HB101 [7]; 5.7 × 10^−3 mM): 7.0 mm
- Diameter of the zone of growth inhibition (Bacillus subtilis W168 [8]; 5.7 × 10^0 mM): 39.0 mm
- Diameter of the zone of growth inhibition (Bacillus subtilis W168 [8]; 5.7 × 10^1 mM): 71.0 mm
- Diameter of the zone of growth inhibition (Bacillus subtilis W168 [8]; 5.7 × 10^−1 mM): 47.0 mm
- Diameter of the zone of growth inhibition (Bacillus subtilis W168 [8]; 5.7 × 10^−2 mM): 22.0 mm
- Diameter of the zone of growth inhibition (Bacillus subtilis W168 [8]; 5.7 × 10^−3 mM): 10.0 mm
- Diameter of the zone of growth inhibition (Bacillus subtilis W168 [8]; 5.7 × 10^−4 mM): 8.0 mm
- Diameter of the zone of growth inhibition (Bacillus subtilis W168 [8]; 5.7 × 10^−5 mM): 6.0 (NZ) mm
- Diameter of the zone of growth inhibition (Bacillus subtilis W168 [8]; 5.7 × 10^−6 mM): 6.0 (NZ) mm
- Diameter of the zone of growth inhibition (Bacillus subtilis W168 [8]; 5.7 × 10^−7 mM): 6.0 (NZ) mm
- MIC [9]: 1.57 μg/ml and 2.12 × 10^−3 mM
- Relative to AgNO3 [9]: 34.71

Compound: Cc1cc(C)c(N=C(N=C(Nc2c(C)cc(C)cc2C)C(F)(F)C(F)(F)C(F)(F)F)C(F)(F)C(F)(F)C(F)(F)F)c(C)c1 [[N{(C3F7)C(Mes)N}2]H]
- MIC (Bacillus subtilis W168 [1]): 2.69 mM (≈ 1730 µg/mL)
- Relative to AgNO3 (Bacillus subtilis W168 [1]): 5.46 × 10^−2
- MIC [3]: 1402.43 μg/ml and 2.18 mM
- Relative to AgNO3 [3]: 8.44 × 10^−3
- MIC (Escherichia coli HB101 [4]): 1126.88 μg/ml and 1.75 mM
- Relative to AgNO3 (Escherichia coli HB101 [4]): 3.37 × 10^−2
- Diameter of the zone of growth inhibition ([5]; 5.7 × 10^0 mM): 8.5 mm
- Diameter of the zone of growth inhibition ([5]; 5.7 × 10^1 mM): 9.0 mm
- Diameter of the zone of growth inhibition ([5]; 5.7 × 10^−1 mM): 7.5 mm
- Diameter of the zone of growth inhibition ([5]; 5.7 × 10^−2 mM): 7.5 mm
- Diameter of the zone of growth inhibition ([5]; 5.7 × 10^−3 mM): 7.0 mm
- Diameter of the zone of growth inhibition ([6]; 5.7 × 10^0 mM): 7.5 mm
- Diameter of the zone of growth inhibition ([6]; 5.7 × 10^1 mM): 9.5 mm
- Diameter of the zone of growth inhibition ([6]; 5.7 × 10^−1 mM): 6.0 (NZ) mm
- Diameter of the zone of growth inhibition ([6]; 5.7 × 10^−2 mM): 6.0 (NZ) mm
- Diameter of the zone of growth inhibition ([6]; 5.7 × 10^−3 mM): 6.0 (NZ) mm
- antibacterial activity against Gram-positive organisms (in words) [10]: less effective
- Diameter of the zone of growth inhibition (Escherichia coli HB101 [7]; 5.7 × 10^0 mM): 8.0 mm
- Diameter of the zone of growth inhibition (Escherichia coli HB101 [7]; 5.7 × 10^1 mM): 10.0 mm
- Diameter of the zone of growth inhibition (Escherichia coli HB101 [7]; 5.7 × 10^−1 mM): 7.5 mm
- Diameter of the zone of growth inhibition (Escherichia coli HB101 [7]; 5.7 × 10^−2 mM): 7.0 mm
- Diameter of the zone of growth inhibition (Escherichia coli HB101 [7]; 5.7 × 10^−3 mM): 7.0 mm
- Diameter of the zone of growth inhibition (Bacillus subtilis W168 [8]; 5.7 × 10^0 mM): 8.0 mm
- Diameter of the zone of growth inhibition (Bacillus subtilis W168 [8]; 5.7 × 10^1 mM): 9.0 mm
- Diameter of the zone of growth inhibition (Bacillus subtilis W168 [8]; 5.7 × 10^−1 mM): 6.0 (NZ) mm
- Diameter of the zone of growth inhibition (Bacillus subtilis W168 [8]; 5.7 × 10^−2 mM): 6.0 (NZ) mm
- Diameter of the zone of growth inhibition (Bacillus subtilis W168 [8]; 5.7 × 10^−3 mM): 6.0 (NZ) mm
- MIC [9]: 2252.38 μg/ml and 3.50 mM
- Relative to AgNO3 [9]: 2.10 × 10^−2

— US7893288B2, “Poly-halogenated triazapentadiene compositions” (Board of Regents, The University of Texas System, priority 2007, dated 2011)
